“And” between values parts separate entries of the source, which are not always exact repeats. Equal values may be shown once. “Also recorded” adds a separate entry of the source. Marks after values point to notes of the source that are not given here.
How the values were obtained:
[1] = system: bacterial flora present in the mouth; experiment: Biofilm formation on extracted human teeth (CEPLAC staining); format: cell-based; settings: FeQ 340 μM; 48 hours of culturing
Protocol: Molar teeth were extracted from human patients, and mouth swabs taken from each patient to obtain samples of each patient's bacterial flora present in the mouth. The mouth swabs were cultured in the laboratory using LB media in order to grow bacterial populations ordinarily present in the mouth of each patient. The extracted teeth were washed and brushed extensively using PBS buffer and ethanol. Each patient's tooth was then placed in the bacterial culture prepared from that patient's bacterial flora sample, and cultured aerobically for 24 hours in LB media. The teeth were then stained with CEPLAC™ (Manx Healthcare Ltd, Warwick, UK), and washed three times with PBS-Tween (50 mL) to determine if biofilm had been formed on the teeth.
All teeth stained red indicating the presence of biofilm on the teeth after just 24 hours. The same teeth were then cleaned using PBS buffer and ethanol, and the procedure repeated except with 48 hours of culturing in the presence of FeQ (340 μM).

Campylobacter = experiment: Broiler trial: Campylobacter carriage in droppings and caeca; format: in vivo; settings: chickens challenged day 20
Protocol: (§1) A study was performed to evaluate growth promotion and reduction of Campylobater carriage using FeQ and FeTyr in Ross 308 male broilers with 7 treatment groups. Each treatment group comprised four replicates of 10 birds per pen (40 birds/treatment group and 4 pens of 10 birds/treatment group), and there were 2 control groups and 5 test groups. All the test groups and one of the control groups were exposed at day 20 of the trial to dirty litter, which tested positive for Campylobacter. This method was used to provide a more natural method to Campylobater challenge the birds. Thus there was a positive control where one treatment group was challenged with Campylobacter and one negative control group where the birds were not challenged, and five treatment groups that were all challenged with Campylobacter. The total number of birds used in the 7 treatment groups was 280. Treatment group 1 was a negative control where birds just received the commercial feed, and were not challenged with dirty litter containing Campylobacter. Treatment group 2 was the positive control where the birds received the commercial feed, and were challenged with dirty litter containing Campylobater at day 20. Treatment group 3 received 0.22 g/L of FeQ in their drinking water and 0.22 g/Kg FeQ in their feed during the entire trial, and was challenged with dirty litter containing Campylobater at day 20. Treatment group 5 received 0.22 g/L of FeQ in their drinking water during the entire trial, and was challenged with dirty litter containing Campylobater at day 20. Treatment group 6 received 0.22 g/kg FeQ in their feed during the entire trial, and was challenged with dirty litter containing Campylobater at day 20. Treatment group 7 received 0.022 g/L FeQ in their drinking water during the entire trial, and was challenged with dirty litter containing Campylobater at day 20. Treatment group 8 received 0.02 g/L FeTyr in their drinking water during the entire trial, and was challenged with dirty litter containing Campylobater at day 20. The FeTyr was pre-dissolved in DMSO, and diluted to provide a solution of 0.02 g/L of FeTyr in water. (An additional treatment group 4 was terminated due to solubility issues.)
(§2) Prior to challenging the chickens with dirty litter containing Campylobacter at day 20, each pen was tested for Campylobater using cloacal swabs. All pens tested negative for Campylobater prior to the challenge. At day 20, litter, which was naturally Campylobacter-contaminated was tested to confirm the presence of Campylobacter, and then added (approximately 2 kg/pen) to the litter in all pens except in pens for treatment group 1 (the negative control). At day 28, the pen litter was sampled to confirm the presence or absence of Campylobacter. At day 41 and 42, caecal samples were taken from 3 birds per pen (12 birds per treatment group) and tested for Campylobater enumeration. At day 42, digesta, fecal samples, and caecal content was taken from all birds, and pooled per pen. Two birds per pen were also taken from treatment groups 1-3, euthanized, and blood samples taken. Samples were analyzed for blood chemistry, including analysis for alkaline phosphatase, aspartate amino transferase, alanine amino transferase, gamma-glutamyl transferase, lactate dehydrogenase, total protein, albumin, globulin, amylase and glucose.

[2] = system: PAO-1 strains of Pseudomonas aeruginosa; experiment: Biofilm formation on contact lens (ESEM); format: cell-based; settings: 340 μM in LB, 37° C., 24 hours
Protocol: To investigate biofilm formation on the contact lens, clinically determined PAO-1 strains of Pseudomonas aeruginosa were incubated with the lenses in either Luria-Bertani Media (LB) or LB with a final concentration of 340 μM FeQ at 37° C. for 24 hours in a non-shaking incubator. The lenses were then washed 6 times with PBS+0.05% Tween, before being stored overnight in PBS+0.05% Tween. In preparation for the ESEM, formaldehyde was added to a final concentration of 1% and incubated for 10 minutes in order to inactivate the bacteria. The lenses were then washed 4 times with PBS+0.05% Tween, and immediately before analysis the lenses were washed a further two times with distilled water.

[3] = system: Pseudomonas aeruginosa PAO-1; experiment: Biofilm coverage rate on glass slide; format: cell-based; settings: 100 μM; 72 hours
[4] = Broiler trial: growth performance; format: in vivo, chicken (Ross 308 male broilers)
Protocol: as §1
The birds were fed with a commercial three-phase feeding program using starter, grower and finisher feeds with formulations shown in Table 2. All diets had coccidiostat (MAXIBAN® at 0.0625% in starter and […] and MONTEBAN® at 0.06% in finisher phase). Xylanase (RONOZYME® WX at 200 g per ton) and phytase (RONOZYME® P at 150 grams per ton) were added to all diets.
The feeding program is show in Table 3. The birds were reared in floor pens to day 42, and fed starter, grower and finisher feed at day 0 to 11, 11 to 24, and 24 to 42 days, respectively. All birds were weighed individually and feed weigh backs recorded per pen at day 0, 11, 21, 24 and 42 days.
as §2, with “Samples were analyzed for blood chemistry, including analysis for alkaline phosphatase, aspartate amino transferase, alanine amino transferase, gamma-glutamyl transferase, lactate dehydrogenase, total protein, albumin, globulin, amylase and glucose.” left out

[5] = system: uropathogenic Escherichia coli UPEC-536; experiment: Biofilm coverage rate on glass slide; format: cell-based; settings: 0.1 μM, 1 μM, 10 μM and 100 μM; 72 hours; listed as Fe-QA
[6] = Treatment of an acne patient; format: in vivo, human
Protocol: A patient was treated continuously for 30 days by applying a solution of ferric quinate (340 μM) to their acne vulgarism (“acne”) once each day. Within 5 days of the start of treatment, their acne, which had not previously responded to treatment with antibiotics, began to show signs of healing.

[7] = system: Staphylococcus epidermidis F1513; experiment: Biofilm formation on plastic coated UV beads; format: cell-based; settings: different concentrations of Fe-QA; T=0 and T=24 h
Protocol: (§3) Bacteria (Enterococcus faecalis NCTC 12697, Staphylococcus epidermidis F1513 and Staphylococcus aureus ATCC 25923) were grown on Brain heart infusion (BHI) passaged to new medium either containing Fe-QA or alone. Growth suspensions were prepared at 0.0001 OD/mi and then allowed to grow at 37° C. under nounal atmospheric conditions for 24 h in BHI with plastic coated UV beads (Lascells). […], 10 μl suspension was serially diluted 10 fold to 10-3, 10-4, 10-5, 10-6, 10-7, 10-8. For each dilution, 10 μl was spotted on BHI agar plates and colonies counted after 24 h. The beads were also removed washed in PBS before adding to 1 ml PBS. After vortex mixing, 10 μl of the cell suspension was serially diluted as above and cell counts carried out.

[8] = system: Staphylococcus aureus ATCC 25923; experiment: Biofilm formation on plastic coated UV beads; format: cell-based; settings: different concentrations of Fe-QA; T=0 and T=24 h
Protocol: as §3

[9] = system: Enterococcus faecalis NCTC 12697; experiment: Biofilm formation on plastic coated UV beads; format: cell-based; settings: different concentrations of Fe-QA; T=0 and T=24 h
Protocol: as §3

[10] = system: Enteropathogenic E. coli (EPEC) E2348/69; experiment: Crystal violet assay of attachment to plastic well surface; format: cell-based; settings: 48 hours
Protocol: (§4) Enteropathogenic E. coli (EPEC) E2348/69 were grown in wells for 48 hours at 37° C. in the presence of FeQ (100 μM), and in the absence of FeQ (as control). After 48 hours, the wells were washed in order to remove suspended cells. Crystal violet was then added to each well. The wells were then washed to remove excess dye. A mixture of acetone/ethanol was then added to the wells to re-suspend any cells attached to the plastic surface of the wells, and dissolve any dye present. The presence of dye in each well was then quantified by measuring the O.D. at 570 nm.
as §4, with “FeDOPA (10-250” for “FeQ (100”, “FeDOPA” for “FeQ”

[11] = system: mature EPEC-ΔcsrA biofilm; experiment: Disruption of preformed biofilm, BioFlux system; format: cell-based, E. coli; settings: FeDOPA 100 μM; 20 hours
[12] = FeQ treatments 3, 5, 6, 7, FeTyr treatment 8, challenged day 20
[13] = treatment 3: 0.22 g/L FeQ in water + 0.22 g/kg FeQ in feed, challenged day 20
[14] = treatment 5: 0.22 g/L FeQ in water, challenged day 20
[15] = treatment 6: 0.22 g/kg FeQ in feed, challenged day 20
[16] = treatment 7: 0.022 g/L FeQ in water, challenged day 20

O=C([O-])C1(O)CC(O)C(O)C(O)C1.O=C([O-])C1(O)CC(O)C(O)C(O)C1.O=C([O-])C1(O)CC(O)C(O)C(O)C1.[Fe+3] (stereo not drawn) [FeQ, ferric quinate]
biofilm on teeth (red CEPLAC staining) [1]: no teeth stained red | average Campylobacter cfu/g of caeca samples at day 42 versus positive control (Campylobacter; FeQ treatments 3, 5, 6, 7, FeTyr treatment 8): lower levels of Campylobacter in their caeca; also recorded: positive effect on reducing Campylobacter infection of poultry | Campylobacter cfu/g of bird droppings at day 42 versus positive control (Campylobacter; FeQ treatments 3, 6, 7, FeTyr treatment 8): positive effect on reducing Campylobacter infection of poultry | Campylobacter colony forming units per gram of bird droppings at day 42 (Campylobacter; treatment 3: 0.22 g/L FeQ in water + 0.22 g/kg FeQ in feed): 4,860 cfu/g | Campylobacter colony forming units per gram of bird droppings at day 42 (Campylobacter; treatment 6: 0.22 g/kg FeQ in feed): 12,800 cfu/g | Campylobacter colony forming units per gram of bird droppings at day 42 (Campylobacter; treatment 7: 0.022 g/L FeQ in water): 900,000 cfu/g | biofilm formation on contact lens (ESEM images) [2]: inhibits biofilm formation | biofilm formation (coverage rate on glass slide) [3]: inhibits the formation of biofilm | MFCR (mortality adjusted feed conversion ratio) 0-20 ([4]; FeQ groups 3, 5, 6, 7 pooled, absence of Campylobacter challenge): 1.2996 | MFCR at day 42 versus positive control [4, 12]: positive effect on MFCR | average body weight at day 42 versus positive control [4, 12]: positive effect on growth | ABW (average body weight) Day 0 [4, 13]: 0.040 kg | MFCR (mortality adjusted feed conversion ratio) Day 0-11 [4, 13]: 1.181^ab | MFCR (mortality adjusted feed conversion ratio) Day 0-42 [4, 13]: 1.595 | ABW (average body weight) Day 0 [4, 14]: 0.040 kg | MFCR (mortality adjusted feed conversion ratio) Day 0-11 [4, 14]: 1.210^ab | MFCR (mortality adjusted feed conversion ratio) Day 0-42 [4, 14]: 1.560 | ABW (average body weight) Day 0 [4, 15]: 0.041 kg | AFD (average feed intake) Day 0-11 [4, 15]: 0.360 kg | AWG (average weight gain) Day 0-11 [4, 15]: 0.310 kg | AWG (average weight gain) Day 11-20 [4, 15]: 0.640 kg | MFCR (mortality adjusted feed conversion ratio) Day 0-11 [4, 15]: 1.168^a | MFCR (mortality adjusted feed conversion ratio) Day 0-42 [4, 15]: 1.563 and 1,563 | ABW (average body weight) Day 0 [4, 16]: 0.040 kg | MFCR (mortality adjusted feed conversion ratio) Day 0-11 [4, 16]: 1.236^b | MFCR (mortality adjusted feed conversion ratio) Day 0-42 [4, 16]: 1.612 | biofilm formation (coverage rate on glass slide) [5]: inhibits founation of biofilm; also recorded: inhibits the formation of biofilm | acne outcome after treatment for 30 days ([6]; solution 340 μM applied once each day): completely healed | recurrence of acne after discontinuation of treatment for over one year ([6]; solution 340 μM applied once each day for 30 days): did not recur | time to first signs of healing of acne ([6]; solution 340 μM applied once each day, patient): ≤ 5 days | biofilm formation on plastic coated UV beads [7]: inhibited S. epidermidis biofilm formation | biofilm formation on plastic coated UV beads [8]: inhibited S. aureus biofilm formation | biofilm formation on plastic coated UV beads [9]: inhibited E. faecalis biofilm formation | attachment of EPEC cells to plastic well surface (crystal violet O.D. at 570 nm) ([10]; FeQ 100 μM): little or no attachment of bacterial cells to the surface and no biofilm formation

Fe(DOPA)3 [FeDOPA]
dispersion of mature biofilm [11]: dispersed the biofilm | attachment of EPEC cells to plastic well surface (crystal violet O.D. at 570 nm) ([10]; FeDOPA 68-250 μM): attachment of bacterial cells to the surface and biofilm formation is inhibited

— patent US9975914B2, “Antimicrobial preparation and uses thereof” (Akeso Biomedical, Inc., priority 2015, dated 2018)
